Earlier results on one compound are cited in US20250090693A1, “BIOCOMPATIBLE COMPOSITION FOR LABELING TARGET LESION, AND PREPARATION METHOD THEREFOR” (NATIONAL CANCER CENTER, priority 2022, published 2025).

Molecules are shown by their SMILES.

For the compound `CC1(C)C(/C=C/C=C/C=C/C=C2\N(CCCCS(=O)(=O)O)c3ccc4ccccc4c3C2(C)C)=[N+](CCCCS(=O)(=O)[O-])c2ccc3ccccc3c21` [indocyanine green (ICG), indocyanine green], the clinical safety result (18 breast cancer patients (T. Kitai, et al., Breast Cancer, 12:211-215, 2005)) is reported as “safely used clinically”. Further, the “time after injection until decomposed and disappearing or excreted through urine and feces” value (injected into the human body) is on record as “about an hour”.
